Assay results taken from article PMC9227096, “Design, Synthesis, and In Vitro, In Silico and In Cellulo Evaluation of New Pyrimidine and Pyridine Amide and Carbamate Derivatives as Multi-Functional Cholinesterase Inhibitors” (Pharmaceuticals, 2022).
Like-named read-outs stand apart in the source and are kept apart here.

Tests used:
equine BChE (eqBChE) = biological target: T1, equine BChE (eqBChE) (Equus caballus, UniProt P81908); test: Ellman's spectrophotometric method, percent inhibition of eqBChE (zero time and after 1 h incubation); format: biochemical; conditions: read-out: % Inhibition vs. eqBChE ± SD; for inhibition at 9 µM: [I] 9 µM
T1 construct: purchased Sigma-Aldrich (Milan, Italy)
Experimental: Regarding the synthesized compounds enzymatic inhibition studies were carried out on Electrophorus electricus AChE (EeAChE) and equine BChE (eqBChE), according to Ellman’s spectrophotometric method.
All other chemical and biological reagents and solvents used were of the highest analytical, commercially available grade. The water, utilized for the preparation of the phosphate buffer and of the solutions of compounds, was distilled and filtered on nylon membrane filters with 0.2 μm pore size with the Millipore® Filtration apparatus before each use. Micropipettes Labmate (BRAND Dig. 10–100 μL; Dig. 100–1000 μL; Dig. 0.1–2 μL) and Transferpette (HIGH TECH LAB LM200: 20–200 μL; LM5000: 1000–5000 μL) were used to collect the samples. The assays were carried out by double beam UV–Vis Lambda 40 Perkin Elmer spectrophotometer, using optical polystyrene cuvettes (10 × 10 × 45 mm, 340–800 nm optical transparency), each measure was repeated at least in triplicate. […] Vivaspin® 2 Sartorius, with a membrane of 3000 MWCO (molecular weight cutoff) consisting of polyethersulfone (PES), cellulose triacetate (CTA) and hydrosart, was used for the ultrafiltration procedures. An ALC PK110 bench-top centrifuge was used for centrifugation. The spectrophotometric method of Ellman, with minor modifications, was used to evaluate the inhibition of cholinesterase enzymes. […] EeAChE and eqBChE were periodically tested to evaluate the effective enzymatic activity.
An amount of 3.0 mL of a solution in 0.1 M phosphate buffer (pH = 7.4) containing DTNB (0.25 mM) and EeAChE (0.083 UmL^−1) or eqBChE (0.083 UmL^−1) were placed in a polystyrene cuvette of 1.0 cm path length; 1 µL of a solution in DMSO of the tested compound was added to obtain in cuvette concentration range 9 µM–0.09 µM. With this solution the blank was made.
Each experiment was repeated at least in triplicate.
The cuvettes were prepared consecutively at intervals of 3 min to allow equal incubation times.

[1] = Chelation studies: UV-Vis titration and Job's plot; format: physicochemical; conditions: for chelating ability on the biometals Fe^3+, Cu^2+ and Zn^2+: UV-Vis spectra in MeOH, ligand/metal ratio 1:3, 1:5 or 1:10
Experimental: Initially, the UV–Vis spectrum of the ligand was recorded and compared with the spectra obtained by adding an excess of metal to the ligand solution, maintaining the same concentration of the ligand (ligand/metal ratio 1:3, 1:5 or 1:10). The variation of the UV–Vis spectrum of the ligand in presence of metal ions is indicative of the formation of the complex. […] As previously supposed, the chelating activity of these compounds is due to the presence of two adjacent nitrogen atoms in the 2-amino-pyridine moiety.
UV–Vis titrations of these compounds were carried out with the metal ions with which they form complexes, recording first the UV–Vis spectrum of the ligand and then the spectra obtained by mixing solutions of ligand and metal according to increasing metal/ligand molar ratios (Figure 7a).
The stoichiometries of metal–ligand complexes were determined through Job’s method.
The mole fraction X, which causes the maximum variation of absorbance, is extracted from the graph and then the value of the coefficient n, which corresponds to the number of ligand molecules per cation, is obtained (Figure 7b). The UV–Vis titrations spectra and the Job’s plots of all tested compound are reported in the Supplementary Materials (Figures S8–S17), while the data extrapolated from Job’s plots are summarized in Table 5.
For the UV–Vis titration, solutions 10^−3 M in MeOH of compounds 12, 14 and 18 were prepared. […]. UV–Vis spectra were recorded from 210 to 450 nm.
For the first measure, 150 µL of ligand solution were diluted in 2.85 mL of MeOH into sample cuvette, while only MeOH was placed in reference cuvette and the UV–Vis spectrum was recorded. For subsequent measurements, 2.85 mL of the opportune metal solution were placed both in a sample cuvette and in a reference cuvette; then 150 µL of ligand solution were added to a sample cuvette, while 150 µL of MeOH were added to the reference cuvette and the UV–Vis spectra were recorded. The spectra thus obtained were superimposed to observe the variations present between the ligand alone and in presence of increasing amount of metal.
To determine the stoichiometric coefficients of the complexes, Job’s method was used, which requires the mixing, in appropriate proportions, of the equimolar solution of metal ion and ligand, so that the final volume and the total moles present in the cuvette are equal for each measurement. The absorbance values were recorded at the wavelengths, extrapolated from the UV–Vis titration spectra, where the maximum variation of absorbance was observed. At the same time two solutions in MeOH of equal concentration were prepared, one of ligand and one of metal ion, diluting the solutions 1 M of CuSO4·5H2O and Zn(NO3)2·6H2O and 0.1 M of FeCl3·6H2O previously prepared. The concentrations of the solutions used and the wavelengths in which the absorbance was recorded were: 2.96·10^−4 M for 12 and Fe^3+–251, 320 nm; 2.83·10^−4 M for 14 and Fe^3+–250, 310 nm; 2.90·10^−4 M for 18 and Fe^3+–245, 310 nm; 6.00·10^−4 M for 18 and Cu^2+–330 nm.
For each determination 9–20 measurements were made, introducing the appropriate volumes of metal and ligand solutions in the sample cuvette to obtain mole fractions of the ligand in the range 0.1–0.9, while appropriate volumes of ligand solution and MeOH were placed in the reference cuvette, to obtain the same concentration of ligand in the sample cuvette. The absorbance values of the metal ion, calculated by the Lambert–Beer relation, known the extinction coefficients ε of the metal ion at used wavelengths and the nominal concentrations of the metal ion for each measure, were algebraically subtracted from the recorded absorbance values, in order to obtain the exclusive absorbance variations due to the complex formation. […]

[2] = [I] 900 nM, 0.0833 U/mL enzyme, 100 µM acetylthiocholine
[3] = 0.0833 U/mL enzyme, 100 µM acetylthiocholine

T1 sequence (P81908 whole entry): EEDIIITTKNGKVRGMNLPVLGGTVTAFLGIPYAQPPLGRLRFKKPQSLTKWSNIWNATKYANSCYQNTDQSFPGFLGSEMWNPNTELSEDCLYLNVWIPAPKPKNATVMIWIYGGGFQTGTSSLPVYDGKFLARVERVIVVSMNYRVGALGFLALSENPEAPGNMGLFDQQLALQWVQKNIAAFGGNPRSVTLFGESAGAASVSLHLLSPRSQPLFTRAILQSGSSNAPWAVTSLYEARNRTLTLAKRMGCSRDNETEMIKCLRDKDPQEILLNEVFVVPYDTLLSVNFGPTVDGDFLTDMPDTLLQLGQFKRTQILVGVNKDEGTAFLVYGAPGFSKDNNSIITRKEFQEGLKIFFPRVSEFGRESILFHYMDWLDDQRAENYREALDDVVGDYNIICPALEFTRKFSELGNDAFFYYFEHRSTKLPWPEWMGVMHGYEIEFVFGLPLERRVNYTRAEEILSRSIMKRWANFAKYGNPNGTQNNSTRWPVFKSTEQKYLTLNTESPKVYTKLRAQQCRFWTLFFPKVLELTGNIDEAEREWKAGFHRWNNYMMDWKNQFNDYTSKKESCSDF

## O=C(NCCCCCCNc1ccccn1)c1ccccc1 [Compound 12, N-(6-(pyridin-2-ylamino)hexyl)benzamide]
Equine BChE (eqBChE); [2]
  inhibition at 0.9 µM: 22%
Equine BChE (eqBChE); [3]
  inhibition at 9 µM: 81%
[1]; Job's plot
  X (mole fraction that causes the maximum variation of absorbance), Fe^3+: 0.69
  n (number of ligand molecules per cation), Fe^3+: 2
[1]
  chelating ability on the biometals Fe^3+, Cu^2+ and Zn^2+: ability to chelate Fe^3+ and Cu^2+ ions

## O=C(Cc1ccc(Oc2ccccc2)cc1)NCCCCCCNc1ccccn1 [Compound 14, 2-(4-phenoxyphenyl)-N-(6-(pyridin-2-ylamino)hexyl)acetamide]
Equine BChE (eqBChE); [2]
  inhibition at 0.9 µM: 45%
Equine BChE (eqBChE); [3]
  inhibition at 9 µM: 88%
[1]; Job's plot
  X (mole fraction that causes the maximum variation of absorbance), Fe^3+: 0.70
  n (number of ligand molecules per cation), Fe^3+: 2
[1]
  chelating ability on the biometals Fe^3+, Cu^2+ and Zn^2+: ability to chelate Fe^3+ and Cu^2+ ions

## O=C(NCCCCCCNc1ccccn1)Oc1ccccc1 [Compound 18, Phenyl (6-(pyridin-2-ylamino)hexyl)carbamate]
Equine BChE (eqBChE); 1 h, [I] = 900 nM, t = 1 h incubation at 25 °C
  inhibition at 0.9 µM: 79.6 ± 5.3%
[1]; Job's plot, Cu^2+
  X (mole fraction that causes the maximum variation of absorbance), Cu^2+: 0.49
  n (number of ligand molecules per cation), Cu^2+: 1
[1]; Job's plot
  X (mole fraction that causes the maximum variation of absorbance), Fe^3+: 0.69
  n (number of ligand molecules per cation), Fe^3+: 2
[1]
  chelating ability on the biometals Fe^3+, Cu^2+ and Zn^2+: ability to chelate Fe^3+ and Cu^2+ ions
